The values that follow come from US8541189B2, “Method for measuring the plasmine activity of microparticles present in a sample of blood or a blood component” (Institut National de la Sante et de la Recherche Medicale …, priority 2007, dated 2013).

This assay addresses plasminogen (Homo sapiens, UniProt P00747). Put plainly: Plasmin-generation test, EMPs in suspension. It is filed as biochemical. The note with it: 5 · 10^4 EMP/50 μL + EACA; 1 μM plasminogen; 0.75 mM CBS0065. The protocol: In the round-bottomed wells of 96-well plates made of PVC, different EMP concentrations in suspension in PBS, to which 0.8% bovine serum albumin (PBSA) had been added, were incubated with 50 μl of a mixture of 1 μM plasminogen and (methyl-malonyl)-hydroxypropylarginine-p-nitroanilide (CBS0065, Stag°, Asniéres, France), chromogenic substrate selective for plasmin, at 0.75 mM.
An identical volume of supernatant from the last washing of the EMPs was used as a control.
The microplate was placed in the microplate readers and the kinetics of the appearance of the plasmin were monitored for 9 hours using a spectrophotometer suitable for reading multiwell plates (MX5000. Dynex) at 37° C. by measurement of the modifications of the absorbance at 405 nm produced by the release of the p-nitroaniline as a function of time.

plasminogen, sequence (P00747 20-810 limits assumed, species assumed): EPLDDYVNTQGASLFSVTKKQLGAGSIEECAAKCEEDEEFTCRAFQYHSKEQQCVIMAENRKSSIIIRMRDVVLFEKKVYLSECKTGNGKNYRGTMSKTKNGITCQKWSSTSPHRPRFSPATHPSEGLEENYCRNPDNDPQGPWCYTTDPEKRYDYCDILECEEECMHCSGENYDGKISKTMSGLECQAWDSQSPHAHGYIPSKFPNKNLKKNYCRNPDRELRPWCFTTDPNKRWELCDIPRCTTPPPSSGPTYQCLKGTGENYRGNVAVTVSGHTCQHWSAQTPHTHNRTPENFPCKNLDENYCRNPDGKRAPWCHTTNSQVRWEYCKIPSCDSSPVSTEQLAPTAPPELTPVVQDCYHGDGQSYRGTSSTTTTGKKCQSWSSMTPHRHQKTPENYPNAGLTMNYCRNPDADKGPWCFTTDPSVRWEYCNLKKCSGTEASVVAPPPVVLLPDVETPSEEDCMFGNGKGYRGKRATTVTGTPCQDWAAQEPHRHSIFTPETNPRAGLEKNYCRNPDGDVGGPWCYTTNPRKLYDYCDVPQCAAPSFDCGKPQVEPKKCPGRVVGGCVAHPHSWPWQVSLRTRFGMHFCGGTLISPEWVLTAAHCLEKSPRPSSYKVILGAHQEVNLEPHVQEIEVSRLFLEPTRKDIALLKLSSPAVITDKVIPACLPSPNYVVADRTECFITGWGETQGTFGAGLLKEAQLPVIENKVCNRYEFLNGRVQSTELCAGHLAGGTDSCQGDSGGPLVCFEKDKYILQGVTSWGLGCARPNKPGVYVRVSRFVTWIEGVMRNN

With `NCCCCCC(=O)O` [EACA, ε-aminocaproic acid], the A405 nm/min stood at 0.6 A405 nm/min.
